Values quoted from earlier work in US11666686B2, “Amtimicrobial silicones” (WYNNVISION, LLC, priority 2020, dated 2023).

For `CCCCCCCCCCCCCCN(C)C` [C14, N,N-dimethyltetradecylamine], the pKa is given as roughly 10.
